Measurements: ChEMBL document CHEMBL5356967, “Design, synthesis, evaluation and optimization of novel azole analogues as potent antifungal agents” (Bioorg Med Chem, 2024)
In brackets after ≈: the same amount, converted by molar mass. Activity calls are given as the source filed them. The rule behind the calls is not given here.

Experiments:
Candida albicans [1] = experiment: Antifungal activity against Candida albicans Y0109 assessed as inhibition of fungal growth incubated for 24 hrs by broth microdilution method; format: functional
Candida albicans [2] = experiment: Antifungal activity against Candida albicans SC5314 assessed as inhibition of fungal growth incubated for 24 hrs by broth microdilution method; format: functional
Cryptococcus neoformans [3] = experiment: Antifungal activity against Cryptococcus neoformans ATCCBLS108 assessed as inhibition of fungal growth incubated for 72 hrs by broth microdilution method; format: functional
Candida parapsilosis [4] = experiment: Antifungal activity against Candida parapsilosis 0306392 assessed as inhibition of fungal growth incubated for 24 hrs by broth microdilution method; format: functional; conditions: Lodderomyces parapsilosis
Candida tropicalis [5] = experiment: Antifungal activity against Candida tropicalis 0370354 assessed as inhibition of fungal growth incubated for 24 hrs by broth microdilution method; format: functional
Trichophyton rubrum = experiment: Antifungal activity against Trichophyton rubrum 0501124 assessed as inhibition of fungal growth incubated for 24 hrs by broth microdilution method; format: functional
Nannizzia gypsea = experiment: Antifungal activity against Microsporum gypseum 0310388 assessed as inhibition of fungal growth incubated for 24 hrs by broth microdilution method; format: functional
Aspergillus fumigatus = experiment: Antifungal activity against Aspergillus fumigatus 0504656 assessed as inhibition of fungal growth incubated for 48 hrs by broth microdilution method; format: functional
Candida albicans [6] = experiment: Potency index, ratio of Ketoconazole MIC80 to test compound MIC80 for antifungal activity against Candida albicans Y0109 assessed as inhibition of fungal growth incubated for 24 hrs by broth microdilution method; format: functional
Candida albicans [7] = experiment: Potency index, ratio of Fluconazole MIC80 to test compound MIC80 for antifungal activity against Candida albicans Y0109 assessed as inhibition of fungal growth incubated for 24 hrs by broth microdilution method; format: functional
Candida albicans [8] = experiment: Potency index, ratio of Ketoconazole MIC80 to test compound MIC80 for antifungal activity against Candida albicans SC5314 assessed as inhibition of fungal growth incubated for 24 hrs by broth microdilution method; format: functional
Candida albicans [9] = experiment: Potency index, ratio of Fluconazole MIC80 to test compound MIC80 for antifungal activity against Candida albicans SC5314 assessed as inhibition of fungal growth incubated for 24 hrs by broth microdilution method; format: functional
Candida albicans [10] = experiment: Antifungal activity against fluconazole-resistant Candida albicans 901 assessed as inhibition of fungal growth incubated for 24 hrs by broth microdilution method; format: functional
Candida albicans [11] = experiment: Antifungal activity against fluconazole-resistant Candida albicans 904 assessed as inhibition of fungal growth incubated for 24 hrs by broth microdilution method; format: functional
NIH3T3 = experiment: Cytotoxicity against mouse NIH/3T3 cells assessed as reduction in cell viability at below 16 microg/ml incubated for 24 hrs by CCK-8 assay; format: toxicity, cell-based; conditions: nih3t3, 24 h, dose < 16 µg/ml
Candida parapsilosis [12] = experiment: Potency index, ratio of Itraconazole MIC80 to test compound MIC80 for antifungal activity against Candida parapsilosis 0306392 assessed as inhibition of fungal growth incubated for 24 hrs by broth microdilution method; format: functional
Candida parapsilosis [13] = experiment: Potency index, ratio of Fluconazole MIC80 to test compound MIC80 for antifungal activity against Candida parapsilosis 0306392 assessed as inhibition of fungal growth incubated for 24 hrs by broth microdilution method; format: functional
Candida parapsilosis [14] = experiment: Potency index, ratio of Ketoconazole MIC80 to test compound MIC80 for antifungal activity against Candida parapsilosis 0306392 assessed as inhibition of fungal growth incubated for 24 hrs by broth microdilution method; format: functional
Cryptococcus neoformans [15] = experiment: Antifungal activity against Cryptococcus neoformans ATCCBLS108 assessed as inhibition of fungal growth at 4 ug/ml incubated for 48 hrs by spot assay; format: functional, organism-based; conditions: dose 4.0 µg/ml
Candida parapsilosis [16] = experiment: Antifungal activity against Candida parapsilosis 0306392 assessed as inhibition of fungal growth at 4 ug/ml incubated for 48 hrs by spot assay; format: functional, organism-based; conditions: dose 4.0 µg/ml
Candida tropicalis [17] = experiment: Antifungal activity against Candida tropicalis 0370354 assessed as inhibition of fungal growth at 4 ug/ml incubated for 48 hrs by spot assay; format: functional, organism-based; conditions: dose 4.0 µg/ml
Candida albicans [18] = experiment: Antifungal activity against Candida albicans SC5314 assessed as inhibition of fungal growth at 4 ug/ml incubated for 48 hrs by spot assay; format: functional, organism-based; conditions: dose 4.0 µg/ml
Candida albicans [19] = experiment: Antifungal activity against fluconazole-resistant Candida albicans 901 assessed as inhibition of fungal growth at 4 ug/ml incubated for 48 hrs by spot assay; format: functional, organism-based; conditions: dose 4.0 µg/ml
Candida albicans [20] = experiment: Antifungal activity against fluconazole-resistant Candida albicans 904 assessed as inhibition of fungal growth at 4 ug/ml incubated for 48 hrs by spot assay; format: functional, organism-based; conditions: dose 4.0 µg/ml

Row | Structure (SMILES) | MIC80 (Candida albicans [1]) [mg/L] | MIC80 (Candida albicans [2]) [mg/L] | MIC80 (Cryptococcus neoformans [3]) [mg/L] | MIC80 (Candida parapsilosis [4]) [mg/L] | MIC80 (Candida tropicalis [5]) [mg/L] | MIC80 (Trichophyton rubrum) [mg/L] | MIC80 (Nannizzia gypsea) [mg/L] | MIC80 (Aspergillus fumigatus) [mg/L] | Ratio (Candida albicans [6]) | Ratio (Candida albicans [7]) | Ratio (Candida albicans [8]) | Ratio (Candida albicans [9]) | MIC80 (Candida albicans [10]) [mg/L] | MIC80 (Candida albicans [11]) [mg/L] | Activity (NIH3T3) | Ratio (Candida parapsilosis [12]) | Ratio (Candida parapsilosis [13]) | Ratio (Candida parapsilosis [14]) | Activity (Cryptococcus neoformans [15]) | Activity (Candida parapsilosis [16]) | other results
1 | OCCC1CCN(CCc2cn(C[C@H]3CO[C@](Cn4ccnc4)(c4ccc(O)cc4F)O3)nn2)CC1 (mixture of isomers) | 0.016 | 0.016 | 0.125 | 0.125 | 1 | 0.125 | 0.25 | > 64 | 64 | 16 | 64 | 16 | 2 | 16 | Non-Toxic |  |  |  |  |  | 
2 | Oc1ccc([C@@]2(Cn3ccnc3)OC[C@H](Cn3cc(CCN4CCCCC4)nn3)O2)c(F)c1 (mixture of isomers) | 0.063 | 0.063 | 0.063 | 0.063 | 0.125 | 0.25 | 0.25 | > 64 |  |  |  |  |  |  |  | 4 | 16 | 32 |  |  | 
3 | OCC1CCN(CCc2cn(C[C@H]3CO[C@](Cn4ccnc4)(c4ccc(O)cc4F)O3)nn2)CC1 (mixture of isomers) | 0.016 | 0.016 | 0.063 | 0.063 | 0.063 | 0.5 | 0.25 | 16 | 64 | 16 | 64 | 16 | 2 | 8 | Non-Toxic |  |  |  | Active | Active | Activity (Candida tropicalis [17]): Active; Activity (Candida albicans [18]): Active; Activity (Candida albicans [19]): Active; Activity (Candida albicans [20]): Active
4 | Oc1ccc([C@@]2(Cn3ccnc3)OC[C@H](Cn3cc(CCN4CCOCC4)nn3)O2)c(F)c1 (mixture of isomers) | 0.063 | 0.063 | 0.063 | 0.125 | 0.125 | 0.5 | 0.25 | > 64 |  |  |  |  |  |  |  | 4 | 16 | 32 |  |  | 
5 | OC(Cn1cncn1)(Cn1cncn1)c1ccc(F)cc1F [FLUCONAZOLE] | 0.25 (≈ 0.816 µM) | 0.25 (≈ 0.816 µM) | 1 (≈ 3.27 µM) | 1 (≈ 3.27 µM) | 16 (≈ 52.2 µM) | 4 (≈ 13.1 µM) | 1 (≈ 3.27 µM) | > 64 |  |  |  |  | > 64 | > 64 |  |  |  |  | Active | Active | Activity (Candida tropicalis [17]): Active; Activity (Candida albicans [18]): Active; Activity (Candida albicans [19]): inactive; Activity (Candida albicans [20]): inactive
